# Measured values taken from patent US20060148055A1, “Oxidised fragments of apolioprotein B and their uses” (priority 1997, published 2006).
# No end group written: not given here. MDA = malondialdehyde
# System: U937 monocytes
# Assay: Inhibition of oxidised LDL uptake by peptides in monocytes in cell culture (DiI-labelled LDL fluorescence)
# Type: cell-based
# Settings: versus oxidised LDL alone, ANOVA followed by Tukey post test
# Method: An experiment was performed to determine in cell culture if uptake of oxidised LDL by U937 monocytes could be inhibited by the peptides according to SEQ ID NOs:1-3, both in their native state and conjugated to MDA.
# LDL (1 mg/ml) was labelled with 1,1′-dioctadecyl-3,3,3′,3′,-tetramethylindocarbocyanine perchlorate (DiI) (300 μg/mg LDL) by incubation overnight at 37° C. in the dark under nitrogen. Excess DiI was removed by desalting into PBS (0.01 M phosphate buffer, 0.137 M sodium chloride, pH 7.4) through a PD-10 column.
# U937 monocytes were maintained in RPMI media supplemented with heat inactivated fetal calf serum (10%) (FCS) and penicillin/streptomycin (1%). Cells were ‘starved’ of lipids by culturing in RMPI supplemented with penicillin/streptomycin (1%) in the absence of serum, and plated at 1 million cells per well in 6 well plates, 4 hours before treatment with DiI labelled LDL. […] Non-starved cells were also plated at 1 million cells per well in 6 well plates, 4 hours before treatment with DiI labelled LDL. Starved and non-starved cells were treated with DiI labelled LDL (oxidized) (50 μg) in the presence or absence of excess unlabelled peptide (native or MDA-conjugated) (500 μg) as competitor. […] Fluorescence was read at Ex 520 nm, Em 590 nm using a Molecular Devices Gemini XS microplate fluorimeter. […]
substance,measurement,setting,value
RB1: peptide SEQ ID NO: 1 (ALQYKLEGTTR) MDA-conjugated (ALQYK(MDA)LEGTTR),inhibition of uptake of oxidised LDL by monocytes (in words),,inhibition is statistically significant
same,inhibition of uptake of oxidised LDL by monocytes (in words),listed as peptide corresponding to SEQ ID NO:1 conjugated to MDA,inhibits uptake
